{"source": "patent US20150272939A1", "about": "“Identification of Small Molecule Inhibitors of Jumonji AT-Rich Interactive Domain 1A (JARID1A) and 1B (JARID1B) Histone Demethylase” (Yale University, priority 2012, published 2015)", "key": {"JARID1B": {"biological_target": "T1, JARID1B (Homo sapiens, UniProt Q9UGL1)", "T1 construct": "The FLAG tagged full length JARID1B enzyme was expressed in Sf21 insect cells using FLAG-JARID1B baculoviruses; FLAG (N); made in house; host or cells: Sf21 insect cells (baculovirus)", "T1 sequence (Q9UGL1 whole entry)": "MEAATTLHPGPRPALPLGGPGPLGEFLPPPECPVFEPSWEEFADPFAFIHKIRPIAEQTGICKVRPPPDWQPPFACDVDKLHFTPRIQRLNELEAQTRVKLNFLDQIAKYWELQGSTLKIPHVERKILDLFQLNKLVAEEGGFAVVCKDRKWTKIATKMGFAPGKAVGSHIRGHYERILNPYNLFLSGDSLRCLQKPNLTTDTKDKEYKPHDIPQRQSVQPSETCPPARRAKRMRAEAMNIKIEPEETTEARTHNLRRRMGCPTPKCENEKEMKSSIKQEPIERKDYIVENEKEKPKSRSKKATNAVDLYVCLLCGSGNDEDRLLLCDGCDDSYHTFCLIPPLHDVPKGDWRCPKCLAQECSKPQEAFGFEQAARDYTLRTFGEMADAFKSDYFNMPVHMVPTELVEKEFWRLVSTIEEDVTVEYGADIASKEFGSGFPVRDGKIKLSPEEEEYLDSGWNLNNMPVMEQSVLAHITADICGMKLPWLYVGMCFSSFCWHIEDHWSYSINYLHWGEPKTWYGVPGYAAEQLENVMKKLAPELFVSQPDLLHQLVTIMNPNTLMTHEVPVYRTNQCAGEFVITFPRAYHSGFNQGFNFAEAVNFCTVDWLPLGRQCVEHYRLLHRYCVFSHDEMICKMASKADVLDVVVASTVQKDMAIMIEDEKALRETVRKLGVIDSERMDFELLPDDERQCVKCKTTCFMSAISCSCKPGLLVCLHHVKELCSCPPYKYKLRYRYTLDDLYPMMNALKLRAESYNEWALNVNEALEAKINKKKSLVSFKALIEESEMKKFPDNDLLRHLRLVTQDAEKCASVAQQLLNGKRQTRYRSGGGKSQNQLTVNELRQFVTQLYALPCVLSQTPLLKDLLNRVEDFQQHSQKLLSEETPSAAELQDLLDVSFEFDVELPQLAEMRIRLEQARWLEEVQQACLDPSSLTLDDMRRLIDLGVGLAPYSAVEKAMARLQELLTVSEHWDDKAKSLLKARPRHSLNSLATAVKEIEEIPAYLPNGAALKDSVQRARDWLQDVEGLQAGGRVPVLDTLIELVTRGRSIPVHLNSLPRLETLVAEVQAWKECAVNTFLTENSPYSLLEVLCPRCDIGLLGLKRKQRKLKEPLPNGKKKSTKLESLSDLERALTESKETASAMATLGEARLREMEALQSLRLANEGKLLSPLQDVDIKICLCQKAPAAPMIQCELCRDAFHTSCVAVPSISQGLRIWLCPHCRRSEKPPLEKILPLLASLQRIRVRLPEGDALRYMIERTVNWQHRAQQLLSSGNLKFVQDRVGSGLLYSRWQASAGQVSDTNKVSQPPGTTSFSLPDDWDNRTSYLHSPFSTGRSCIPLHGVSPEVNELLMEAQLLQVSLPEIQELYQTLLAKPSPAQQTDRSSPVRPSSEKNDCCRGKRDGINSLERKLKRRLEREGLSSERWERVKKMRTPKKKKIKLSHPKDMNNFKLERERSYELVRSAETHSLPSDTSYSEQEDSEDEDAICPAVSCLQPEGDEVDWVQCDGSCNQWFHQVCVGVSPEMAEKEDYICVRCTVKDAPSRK", "experiment": "FLAG-JARID1B histone demethylase assay with AlphaScreen detection (HTS and dose response);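 on Assay Signal (percent): compound tested at 20 µM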;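 on Assay − Artifact Signal (percent): compound tested at 20 µM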;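 on all read-outs here: FLAG-tagged JARID1B at 4 nM acting on a biotinylated H3K4me3 peptide, demethylation read by AlphaScreen luminescence, with hits checked against bio-H3K4me2 without enzyme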", "format": "biochemical", "conditions": "for inhibition at 20 µM: high-throughput screen, compound 20 μM, standard demethylase conditions (10 μM α-KG, 50 μM Fe (II)), read-out: Inhibitory effect (percent); for Validation result of HTS active: effect of the compound in the JARID1B AlphaScreen demethylase assay / Assay Signal (percent): validation of HTS actives; for Validation result of HTS active: effect of the compound in the JARID1B AlphaScreen demethylase assay: total signal before subtraction of artifact signal; for Assay − Artifact Signal (percent): assay signal minus artifact signal; for Assay Signal (percent): effect of compound in JARID1B AlphaScreen assay"}, "[1]": {"experiment": "AlphaScreen counterscreen against bio-H3K4me2 peptide in the absence of enzyme (artifact signal);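 on all read-outs here: counterscreen run without enzyme against bio-H3K4me2 peptide to remove false positive hits from the JARID1 demethylase AlphaScreen screen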", "conditions": "for Artifact signal: effect of the compound when it is incubated with bio-H3K4me2 peptide: counterscreen, no enzyme; for Artifact Signal (percent): effect of the compound when incubated with bio-H3K4me2 peptide (counterscreen, no enzyme)"}}}
{"smiles": "O=C(NCc1ccccn1)c1ccc(NC(=O)c2ccco2)cc1", "note": "[YU152560]", "values": [{"measurement": "inhibition at 20 µM", "setting": "JARID1B", "result": 41.5, "unit": "%"}, {"measurement": "Validation result of HTS active: effect of the compound in the JARID1B AlphaScreen demethylase assay", "setting": "JARID1B", "result": "−1.53"}, {"measurement": "Artifact signal: effect of the compound when it is incubated with bio-H3K4me2 peptide", "setting": "[1]", "result": "−6.86"}]}
{"smiles": "COC(=O)C1=C(C)NC(=O)C1(Nc1nccs1)C(F)(F)F", "note": "(stereo not shown) [YU152562]", "values": [{"measurement": "inhibition at 20 µM", "setting": "JARID1B", "result": 39.4, "unit": "%"}, {"measurement": "Validation result of HTS active: effect of the compound in the JARID1B AlphaScreen demethylase assay", "setting": "JARID1B", "result": "−8.43"}, {"measurement": "Artifact signal: effect of the compound when it is incubated with bio-H3K4me2 peptide", "setting": "[1]", "result": "−15.40"}]}
{"smiles": "Cc1cccc(OCC(=O)Nc2ccccc2OC(F)F)c1C", "note": "[YU152564]", "values": [{"measurement": "inhibition at 20 µM", "setting": "JARID1B", "result": 99.6, "unit": "%"}, {"measurement": "Validation result of HTS active: effect of the compound in the JARID1B AlphaScreen demethylase assay", "setting": "JARID1B", "result": 9.13}, {"measurement": "Artifact signal: effect of the compound when it is incubated with bio-H3K4me2 peptide", "setting": "[1]", "result": 4.29}]}
{"smiles": "CCOc1cc(Cl)c(S(=O)(=O)n2ccnc2)cc1Cl", "note": "[YU152583]", "values": [{"measurement": "inhibition at 20 µM", "setting": "JARID1B", "result": 45.9, "unit": "%"}, {"measurement": "Validation result of HTS active: effect of the compound in the JARID1B AlphaScreen demethylase assay", "setting": "JARID1B", "result": 1.32}, {"measurement": "Artifact signal: effect of the compound when it is incubated with bio-H3K4me2 peptide", "setting": "[1]", "result": "−4.74"}]}
{"smiles": "COc1cc(C=O)cc(Cl)c1OCc1cccc([N+](=O)[O-])c1", "note": "[YU152587]", "values": [{"measurement": "inhibition at 20 µM", "setting": "JARID1B", "result": 98.2, "unit": "%"}, {"measurement": "Validation result of HTS active: effect of the compound in the JARID1B AlphaScreen demethylase assay", "setting": "JARID1B", "result": "−1.32"}, {"measurement": "Artifact signal: effect of the compound when it is incubated with bio-H3K4me2 peptide", "setting": "[1]", "result": "−2.67"}]}
{"smiles": "CCCCOc1ccc(NC(=O)CSc2nnnn2C)cc1", "note": "[YU152624]", "values": [{"measurement": "inhibition at 20 µM", "setting": "JARID1B", "result": 37.7, "unit": "%"}, {"measurement": "Validation result of HTS active: effect of the compound in the JARID1B AlphaScreen demethylase assay", "setting": "JARID1B", "result": "−1.90"}, {"measurement": "Artifact signal: effect of the compound when it is incubated with bio-H3K4me2 peptide", "setting": "[1]", "result": "−4.45"}]}
{"smiles": "COc1ccccc1NC(=O)COc1ccc(CO)cc1Cl", "note": "[YU152649]", "values": [{"measurement": "inhibition at 20 µM", "setting": "JARID1B", "result": 99, "unit": "%"}, {"measurement": "Validation result of HTS active: effect of the compound in the JARID1B AlphaScreen demethylase assay", "setting": "JARID1B", "result": 6.08}, {"measurement": "Artifact signal: effect of the compound when it is incubated with bio-H3K4me2 peptide", "setting": "[1]", "result": 0.22}]}
{"smiles": "N#Cc1c(NC(=O)c2cnn3cccnc23)sc2c1CCCC2", "note": "[YU152893]", "values": [{"measurement": "inhibition at 20 µM", "setting": "JARID1B", "result": 84.5, "unit": "%"}, {"measurement": "Validation result of HTS active: effect of the compound in the JARID1B AlphaScreen demethylase assay", "setting": "JARID1B", "result": 9.21}, {"measurement": "Artifact signal: effect of the compound when it is incubated with bio-H3K4me2 peptide", "setting": "[1]", "result": 1.62}]}
{"smiles": "CN1C(=O)c2ccc(NC(=O)c3ccc4c(c3)OCO4)cc2C1=O", "note": "[YU152920]", "values": [{"measurement": "inhibition at 20 µM", "setting": "JARID1B", "result": 96.7, "unit": "%"}, {"measurement": "Validation result of HTS active: effect of the compound in the JARID1B AlphaScreen demethylase assay", "setting": "JARID1B", "result": 0.53}, {"measurement": "Artifact signal: effect of the compound when it is incubated with bio-H3K4me2 peptide", "setting": "[1]", "result": "−2.69"}]}
{"smiles": "C=CCN(CC=C)C(=S)Nc1sc(C)c(C)c1C(=O)OC", "note": "[YU153003]", "values": [{"measurement": "Assay − Artifact Signal (percent)", "setting": "JARID1B", "result": 16.80, "unit": "%"}, {"measurement": "inhibition at 20 µM", "setting": "JARID1B", "result": 65.6, "unit": "%"}, {"measurement": "Assay Signal (percent)", "setting": "JARID1B", "result": 23.56, "unit": "%"}, {"measurement": "Artifact Signal (percent)", "setting": "[1]", "result": 6.76, "unit": "%"}]}
{"smiles": "CCCSc1nc2c3c(sc2c(=O)[nH]1)CC(C)(CC)OC3", "note": "(stereo not shown) [YU153031]", "values": [{"measurement": "Assay − Artifact Signal (percent)", "setting": "JARID1B", "result": 9.19, "unit": "%"}, {"measurement": "inhibition at 20 µM", "setting": "JARID1B", "result": 97, "unit": "%"}, {"measurement": "Assay Signal (percent)", "setting": "JARID1B", "result": 9.27, "unit": "%"}, {"measurement": "Artifact Signal (percent)", "setting": "[1]", "result": 0.09, "unit": "%"}]}
{"smiles": "O=C(NCc1ccccc1)c1ccc(N2CCCC2)c([N+](=O)[O-])c1", "note": "[YU153074]", "values": [{"measurement": "Assay − Artifact Signal (percent)", "setting": "JARID1B", "result": 11.37, "unit": "%"}, {"measurement": "inhibition at 20 µM", "setting": "JARID1B", "result": 102, "unit": "%"}, {"measurement": "Assay Signal (percent)", "setting": "JARID1B", "result": 16.52, "unit": "%"}, {"measurement": "Artifact Signal (percent)", "setting": "[1]", "result": 5.15, "unit": "%"}]}
{"smiles": "O=C(O[C@@H]1Cc2c(O)cc(O)cc2O[C@@H]1c1ccc(O)c(O)c1)c1cc(O)c(O)c(O)c1", "note": "[YU153085, EPICATECHIN MONOGALLATE, reference compound]", "values": [{"measurement": "Assay − Artifact Signal (percent)", "setting": "JARID1B", "result": 8.72, "unit": "%"}, {"measurement": "Assay Signal (percent)", "setting": "JARID1B", "result": 94.59, "unit": "%"}, {"measurement": "Artifact Signal (percent)", "setting": "[1]", "result": 85.87, "unit": "%"}]}
{"smiles": "O=C(O[C@@H]1Cc2c(O)cc(O)cc2O[C@@H]1c1cc(O)c(O)c(O)c1)c1cc(O)c(O)c(O)c1", "note": "[YU153090, EPIGALLOCATECHIN-3- MONOGALLATE, reference compound]", "values": [{"measurement": "Validation result of HTS active: effect of the compound in the JARID1B AlphaScreen demethylase assay", "setting": "JARID1B", "result": 95.83}, {"measurement": "Artifact signal: effect of the compound when it is incubated with bio-H3K4me2 peptide", "setting": "[1]", "result": 90.25}]}
{"smiles": "C#CCOc1c(Cl)cc(C(=S)N2CCOCC2)cc1OC", "note": "[YU153110]", "values": [{"measurement": "Assay − Artifact Signal (percent)", "setting": "JARID1B", "result": 37.96, "unit": "%"}, {"measurement": "inhibition at 20 µM", "setting": "JARID1B", "result": 45.2, "unit": "%"}, {"measurement": "Assay Signal (percent)", "setting": "JARID1B", "result": 34.87, "unit": "%"}, {"measurement": "Artifact Signal (percent)", "setting": "[1]", "result": "−3.09", "unit": "%"}]}
{"smiles": "Cc1cc(C(=O)Nc2c(C)n(C)n(-c3ccccc3)c2=O)c(C)o1", "note": "[YU153128]", "values": [{"measurement": "Assay − Artifact Signal (percent)", "setting": "JARID1B", "result": 8.37, "unit": "%"}, {"measurement": "inhibition at 20 µM", "setting": "JARID1B", "result": 101, "unit": "%"}, {"measurement": "Assay Signal (percent)", "setting": "JARID1B", "result": 12.52, "unit": "%"}, {"measurement": "Artifact Signal (percent)", "setting": "[1]", "result": 4.15, "unit": "%"}]}
{"smiles": "O=C(NC1=NC(=O)C(F)(C(F)(F)F)S1)NC1CCCCC1", "note": "(stereo not shown) [YU153281]", "values": [{"measurement": "Assay − Artifact Signal (percent)", "setting": "JARID1B", "result": 23.51, "unit": "%"}, {"measurement": "inhibition at 20 µM", "setting": "JARID1B", "result": 55.3, "unit": "%"}, {"measurement": "Assay Signal (percent)", "setting": "JARID1B", "result": 25.46, "unit": "%"}, {"measurement": "Artifact Signal (percent)", "setting": "[1]", "result": 1.95, "unit": "%"}]}
{"smiles": "CCOc1c(CNc2ccc(N3CCCC3)cc2)cccc1OC", "note": "[YU153287]", "values": [{"measurement": "Assay − Artifact Signal (percent)", "setting": "JARID1B", "result": 11.21, "unit": "%"}, {"measurement": "inhibition at 20 µM", "setting": "JARID1B", "result": 54.2, "unit": "%"}, {"measurement": "Assay Signal (percent)", "setting": "JARID1B", "result": 28.35, "unit": "%"}, {"measurement": "Artifact Signal (percent)", "setting": "[1]", "result": 17.14, "unit": "%"}]}
{"smiles": "O=c1c(O)c(-c2ccc(O)c(O)c2)oc2c(O[C@@H]3O[C@H](CO)[C@@H](O)[C@H](O)[C@H]3O)c(O)cc(O)c12", "note": "[YU153353, GOSSYPIN, reference compound]", "values": [{"measurement": "Assay − Artifact Signal (percent)", "setting": "JARID1B", "result": 37.81, "unit": "%"}, {"measurement": "Assay Signal (percent)", "setting": "JARID1B", "result": 99.61, "unit": "%"}, {"measurement": "Artifact Signal (percent)", "setting": "[1]", "result": 61.80, "unit": "%"}]}
{"smiles": "O=c1c2cc(O)c(O)cc2oc2cc(O)c([C@@H]3O[C@H](CO)[C@@H](O)[C@H](O)[C@H]3O)c(O)c12", "note": "[YU153356, MANGIFERIN, reference compound]", "values": [{"measurement": "Assay − Artifact Signal (percent)", "setting": "JARID1B", "result": 21.62, "unit": "%"}, {"measurement": "Assay Signal (percent)", "setting": "JARID1B", "result": 98.21, "unit": "%"}, {"measurement": "Artifact Signal (percent)", "setting": "[1]", "result": 76.59, "unit": "%"}]}
{"smiles": "Fc1cccc(-c2nn3c(-c4ccccc4Cl)nnc3s2)c1", "note": "[YU153729]", "values": [{"measurement": "Assay − Artifact Signal (percent)", "setting": "JARID1B", "result": 14.96, "unit": "%"}, {"measurement": "inhibition at 20 µM", "setting": "JARID1B", "result": 33.9, "unit": "%"}, {"measurement": "Assay Signal (percent)", "setting": "JARID1B", "result": 11.41, "unit": "%"}, {"measurement": "Artifact Signal (percent)", "setting": "[1]", "result": "−3.54", "unit": "%"}]}
